Entries after “also recorded” stand apart in the source; their conditions may differ.
How the values were obtained:
Format in all cases: physicochemical
[1] = pH-dependent intensity, phase and modulation data of FIG. 15 and emission spectrum of the dcbpy complex; details: relative to Ru(bpy)3
Text: FIG. 15 graphically depicts data in connection with the metal-ligand complex [Ru(bpy)2 (dcbpy)]Cl4 showing pH-dependent intensity, phase and modulation data.
The emission shift to longer wavelengths at low pH (FIG. 2) seems to be generally understandable in terms of the electronic properties of the excited MLCs. The long wavelength emission is thought to result from a metal-to-ligand charge transfer (MLCT) state in which an electron is donated from Ru to the ligand. The protonated form of deabpy is probably a better electron acceptor, lowering the energy of the MLCT state, shifting the emission to longer wavelengths and thereby decreasing the lifetime. […] Terpetschnig, E., H. Szmacinski, H. Malak and J. R. Lakowicz. Biophys. J., 68:342-350; Fluorescence Polarization Immunoassay of a High Molecular Weight Antigen Based on a Long-Lifetime Ru-Ligand Complex (1995). Terpetschnig, E., H. Szmacinski and J. R. Lakowicz. Anal. Biochem., 227:140-147].
The dcbpy ligand is probably a better electron acceptor than bpy. […] It could be used at a pH in the range of pH 2 to 5.

[2] = pH-dependent fluorescence emission spectra and intensities in buffers
Protocol: (§1) Ru(bpy)2 (deabpy) (PF6)2 solutions at different pH value were prepared by dissolving equal amount of aqueous Ru(bpy)2 (deabpy) (PF6)2 in different buffer solutions. From pH 2 to pH 4.7, we used citrate buffer; from pH 4.8 to pH 6.3 we used acetate buffer; from pH 6.4 to pH 7.8 we used phosphate buffer; from pH 7.8 to pH 9.0 we used tris buffer, from pH 9.2 to pH 11 we used carbonate/bicarbonate buffer, from pH 11 to pH 12 we used dibasic sodium phosphate/sodium hydroxide buffer. Unless stated otherwise the buffer concentrations were 20 mM and contained 0.1 M potassium chloride to maintain ionic strength.
The fluorescence emission spectra were measured using Aminco Bowman Series AB2 Luminescence Spectrometer with the excitation wavelength of 414 nm. […] The emission intensity ratios (620 nm/650 nm) of the different sample were also recorded.

[3] = pH-dependent absorption at 450 nm (ground state pKa); details: from changes in absorption at 450 nm
Protocol: Chemicals and solvents were purchased from Aldrich and used without further purification. Absorption spectra were measured using a Perkin Elmer lambda 6 UV/Vis spectrophotometer. Observed were two isosbestic points at 414 nm and 475 nm. The absorbance at 450 nm of different samples were measured to obtain the ground state pKa.
as §1

[4] = frequency-domain intensity decay (lifetime) measurements, single and global multi-exponential analysis
Text: For the phase/modulation measurements (FIGS. 6-9), an air-cooled Argon ion laser (output at 488 nm) was used as the excitation light source, and the modulation frequency was set at 700 kHz. On the emission side, a long-wave pass filter was used to collect the fluorescence with wavelength longer than 600 nm. The reference solution used here was an aqueous solution of Texas Red with a reference lifetime of 4 ns. For the lifetime measurements, we used the same instrumentation and reference solution, and 23 different modulation frequencies ranging from 11 kHz to 2 MHZ.
Single and multi-exponential intensity decays were recovered from the multi-frequency data as described previously [see, Construction and Performance of a Variable-Frequency Phase-Modulation Fluorometer (1985). Lakowicz, J. R. and B. P. Maliwal. Biophys. Chem., 21:61-78; Frequency-Domain Fluorescence Spectroscopy (1991) in Topics in Fluorescence Spectroscopy, Vol. 1: Techniques, (Lakowicz, J. R., Ed.). Plenum Press, New York, pp. 293-355]. The data were analyzed globally in terms of the multi-exponential model [formula]
where Ik(t) are the intensity decays at each pH (k) value, Ti are the decay times and αik are the amplitudes. For the global analysis we assumed that the αik values would depend on pH, but that the two lifetimes would be independent of pH. The goodness-of-fit was judged by the usual XR^2 criterion with assumed uncertainties in phase δp=0.2° and modulation δm=0.005.

O=C(O)c1ccnc(-c2cc(C(=O)O)ccn2)c1.[Ru+2].c1ccc(-c2ccccn2)nc1.c1ccc(-c2ccccn2)nc1 [[Ru(dcbpy)(bpy)2]^2+]
emission spectrum shift [1]: red shift

CCN(CC)Cc1ccnc(-c2cc(CN(CC)CC)ccn2)c1.[Ru+2].c1ccc(-c2ccccn2)nc1.c1ccc(-c2ccccn2)nc1 [[Ru(deabpy)(bpy)2]^2+]
dependence of apparent pKa on ionic strength / buffer concentration ([2]; 20, 50 and 100 mM phosphate buffer): not found to be dependent on ionic strength; also recorded: same apparent pKa values | emission maximum ([2]; acidic sample (low pH), excitation 414 nm): 650 nm | increase of emission spectrum ([2]; as pH increases from 2.52 to 11.8): about 3 fold | emission maximum ([2]; basic sample, excitation 414 nm): 620 nm | apparent pKa observed by fluorescence ([2]; pH-dependent fluorescence intensities, excitation 414 nm): ~7.5 | ground state pKa [3]: 7.14 | mean decay time ([4]; high pH): ~390 ns | mean decay time ([4]; low pH, protonated amino groups): ~240 ns | α1, amplitude of 235 ns component, global analysis ([4]; pH 2.4): 0.964 | α2, amplitude of 380 ns component, global analysis ([4]; pH 2.4): 0.036 | τ2 (ns), global analysis ([4]; pH 2.4): 380 ns | τi (ns), global analysis ([4]; pH 2.4): 235 ns | τ(ns), single decay time analysis ([4]; pH 2.40): 236 ns | α1, amplitude of 235 ns component, global analysis ([4]; pH 5.8): 0.893 | α2, amplitude of 380 ns component, global analysis ([4]; pH 5.8): 0.107 | τ2 (ns), global analysis ([4]; pH 5.8): 380 ns | τi (ns), global analysis ([4]; pH 5.8): 235 ns | τ(ns), single decay time analysis ([4]; pH 5.89): 252 ns | α1, amplitude of 235 ns component, global analysis ([4]; pH 6.91): 0.828 | α2, amplitude of 380 ns component, global analysis ([4]; pH 6.91): 0.172 | τ2 (ns), global analysis ([4]; pH 6.91): 380 ns | τ(ns), single decay time analysis ([4]; pH 6.91): 262 ns | τi (ns), global analysis ([4]; pH 6.91): 235 ns | α1, amplitude of 235 ns component, global analysis ([4]; pH 7.45): 0.687 | α2, amplitude of 380 ns component, global analysis ([4]; pH 7.45): 0.313 | τ2 (ns), global analysis ([4]; pH 7.45): 380 ns | τ(ns), single decay time analysis ([4]; pH 7.45): 284 ns | τi (ns), global analysis ([4]; pH 7.45): 235 ns | α1, amplitude of 235 ns component, global analysis ([4]; pH 8.02): 0.380 | α2, amplitude of 380 ns component, global analysis ([4]; pH 8.02): 0.620 | τ2 (ns), global analysis ([4]; pH 8.02): 380 ns | τ(ns), single decay time analysis ([4]; pH 8.02): 327 ns | τi (ns), global analysis ([4]; pH 8.02): 235 ns | α1, amplitude of 235 ns component, global analysis ([4]; pH 13.5): 0 | α2, amplitude of 380 ns component, global analysis ([4]; pH 13.5): 1.0 | τ2 (ns), global analysis ([4]; pH 13.5): 380 ns | τ(ns), single decay time analysis ([4]; pH 13.5): 392 ns | τi (ns), global analysis ([4]; pH 13.5): 235 ns | decay time, global analysis ([4]; protonated form): 235 ns | decay time, global analysis ([4]; unprotonated form): 380 ns

From patent publication US20020045268A1, “MEASURING ANALYTES WITH METAL-LIGAND COMPLEX PROBES” (priority 1997, published 2002)
